Assay results taken from paper doi:10.1101/2025.10.28.685111v1.
Where two headings read alike, the source gives them in different places.

Key:
[1] = system: T1, Salmonella Typhimurium ATCC 14028 (STm); assay: microbe, parasite or virus in culture; set-up: Broth microdilution growth inhibition of STm at 500 uM in MHB, M9A or M9I, OD600; settings: Salmonella enterica
T1 construct: ATCC 14028
Description: Antimicrobial susceptibility was assessed using the traditional CLSI minimum inhibitory concentration (MIC) microplate dilution methods with a few modifications ([59]). Briefly, each compound (dissolved in MQ H2O for all pantetheinamides, or DMSO for pantothenamides) was serially diluted in 96-well plates to the desired concentrations. In the case of checkerboard assays, secondary compounds were separately diluted and added to the plate. Mid-exponential phase media-adapted bacteria were added at 5 × 10^5 CFU/mL and in the case of M9I or M9A cultures, the plates were sealed with a gas permeable moisture barrier seal (FroggaBio, Canada) to prevent excessive evaporation, before incubation at 37 °C and 350 rpm, using a tabletop orbital plate shaker (OHAUS, USA). Growth was quantified based on absorbance at 600 nm (OD600) using a microplate reader. The plate was monitored until there was visible growth in the untreated control, but without allowing for overgrowth: ∼14-16h (OD600 > 0.3) in MHB, ∼36 h (OD600 > 0.2) in M9A, and ∼72-120 h (OD600 > 0.15) in M9I. The IC50 was determined using a four-parameter logarithmic curve on Prism v9.0. All experiments were done at minimum in a biological triplicate. […] To accomplish this, the compounds were screened for their ability to reduce STm growth at a high concentration (500 μM) in various media that reflect nutrient-related facets of either extracellular or intracellular environments (Fig. 2a). Mueller-Hinton broth (MHB)—the medium most widely employed for antibacterial testing—was used to represent nutrient-rich extracellular environments such as the gut, while aspects of the nutrient-limited intramacrophage environment were mimicked by using M9-minimal media containing either acetate (M9A) or itaconate (M9I) as the sole carbon source. Growth in M9A requires the glyoxylate shunt, simulating the use of fatty acids ([33]), whereas growth in M9I, as shown in our previous study, requires an active itaconate-degradation pathway and induces excess oxidative stress that is reflective of the intramacrophage environment ([34]). Of the 75 compounds tested, 31 inhibited growth (by >50%) in M9I, six in M9A, and one in MHB. […] In particular, the pantothenamides 6-13 and 6-14 were active in M9A as well as M9I, with 6-13 being the only MHB active compounds. The other M9A active compounds were 1-03 and 1-17 from the “nitro” category and 4-02 and 4-08 from the “fluoro-alkyl” category.  Fig. 2: Screening the pantetheinamides library. a, Percentage growth inhibition of STm by each of the inhibitors in the library, tested at 500 µM in MHB, M9A, or M9I as the sole carbon source. Inhibition % values are summarized in Supplementary Data 1. b, The IC50 in M9I of a subset of the inhibitor library. The full dataset is shown in Fig. S1 and summarized in Supplementary Data 2. c, Dose-response curves in M9I, M9A, and MHB for selected inhibitors, fit to a four-parameter logarithmic curve. d, Tabulated IC50 (± 95% CI), cytotoxicity and selectivity index (given as the cytoxocity/IC50 in M9I) for the same inhibitors as in c. […] The full dataset is shown in Fig. S4a. g, Sample of results summarized in f showing the CFU of surviving STm inside the compound treated macrophages after 22 h. Data bars show the geometric mean of CFU/mL with error bars depicting the 95% CI. The vehicle control (± 95% CI) is shown as the red line. All experiments were independently repeated a minimum of 3 times, where n ≥ 4 for each condition. Significant results were determined using a one-way ANOVA with Dunnett’s multiple comparisons against the vehicle. ✱, p < 0.05; ✱✱, p < 0.01; ✱✱✱, p < 0.001; ✱✱✱✱, p < 0.0001; ns, non-significant, p > 0.05. “X” denotes that a concentration was omitted from the experiment due to toxicity.

[2] = system: T1, Salmonella Typhimurium ATCC 14028 (STm); assay: microbe, parasite or virus in culture; set-up: Broth microdilution dose-response growth inhibition of STm in M9I, OD600, four-parameter fit; settings: Salmonella enterica, read-out: IC50 (µM)
Description: Antimicrobial susceptibility was assessed using the traditional CLSI minimum inhibitory concentration (MIC) microplate dilution methods with a few modifications ([59]). Briefly, each compound (dissolved in MQ H2O for all pantetheinamides, or DMSO for pantothenamides) was serially diluted in 96-well plates to the desired concentrations. In the case of checkerboard assays, secondary compounds were separately diluted and added to the plate. Mid-exponential phase media-adapted bacteria were added at 5 × 10^5 CFU/mL and in the case of M9I or M9A cultures, the plates were sealed with a gas permeable moisture barrier seal (FroggaBio, Canada) to prevent excessive evaporation, before incubation at 37 °C and 350 rpm, using a tabletop orbital plate shaker (OHAUS, USA). Growth was quantified based on absorbance at 600 nm (OD600) using a microplate reader. The plate was monitored until there was visible growth in the untreated control, but without allowing for overgrowth: ∼14-16h (OD600 > 0.3) in MHB, ∼36 h (OD600 > 0.2) in M9A, and ∼72-120 h (OD600 > 0.15) in M9I. The IC50 was determined using a four-parameter logarithmic curve on Prism v9.0. All experiments were done at minimum in a biological triplicate. […] Consequently, the activity was reported as an IC50 value, rather than traditional MICs. […] All other categories had 2-4 molecules with sub-100 μM IC50 values. The general trend in activities for the substituents β to the acyl amide saw CF3 (e.g. 4-01) > thiazole (e.g. 5-01) > NO2 (e.g. 1-01) > CH3 (e.g. 3-01). […] Replacement of the thioester with either a sulfonamide or triazole, rather than an amide, was detrimental to activity. […] Furthermore, increasing the conformational rigidity of the α-substituent correlated with higher IC50 values (e.g, 1-14, methyl < 1-15, dimethyl < 1-16, cyclo  Fig. 2: Screening the pantetheinamides library. a, Percentage growth inhibition of STm by each of the inhibitors in the library, tested at 500 µM in MHB, M9A, or M9I as the sole carbon source. Inhibition % values are summarized in Supplementary Data 1. b, The IC50 in M9I of a subset of the inhibitor library. The full dataset is shown in Fig. S1 and summarized in Supplementary Data 2. c, Dose-response curves in M9I, M9A, and MHB for selected inhibitors, fit to a four-parameter logarithmic curve. d, Tabulated IC50 (± 95% CI), cytotoxicity and selectivity index (given as the cytoxocity/IC50 in M9I) for the same inhibitors as in c. […] The full dataset is shown in Fig. S4a. g, Sample of results summarized in f showing the CFU of surviving STm inside the compound treated macrophages after 22 h. Data bars show the geometric mean of CFU/mL with error bars depicting the 95% CI. The vehicle control (± 95% CI) is shown as the red line. All experiments were independently repeated a minimum of 3 times, where n ≥ 4 for each condition. Significant results were determined using a one-way ANOVA with Dunnett’s multiple comparisons against the vehicle. ✱, p < 0.05; ✱✱, p < 0.01; ✱✱✱, p < 0.001; ✱✱✱✱, p < 0.0001; ns, non-significant, p > 0.05. “X” denotes that a concentration was omitted from the experiment due to toxicity.

[3] = M9A, acetate minimal medium, 36 h, read-out: % Growth Inhibition (Avg) / M9A
[4] = M9I, itaconate minimal medium, 72-120 h, read-out: % Growth Inhibition (Avg) / M9I
[5] = MHB, nutrient-rich medium, 14-16 h, read-out: % Growth Inhibition (Avg) / MHB

In the case of CC(C)(CO)[C@@H](O)C(=O)NCCC(=O)NCCNC(=O)C1CC1(F)F (some centres unmarked) [4-10], the inhibition at 500 µM [1, 3] is reported as 0%, the inhibition at 500 µM [1, 4] is reported as 86% and the inhibition at 500 µM [1, 5] is reported as 11%. It also gave an IC50 [2] of 29 µM.
CCCCCCCC(=O)NCCNC(=O)[C@H](O)C(C)(C)CO [6-14] gave an inhibition at 500 µM [1, 3] of 98%, an inhibition at 500 µM [1, 4] of 99% and an inhibition at 500 µM [1, 5] of 16%. It also gave an IC50 [2] of 1.1 µM.
Work on CCCCCCCNC(=O)CCNC(=O)[C@H](O)C(C)(C)CO [6-13] yielded an inhibition at 500 µM [1, 3] of 100%, an inhibition at 500 µM [1, 4] of 100% and an inhibition at 500 µM [1, 5] of 90%. It also gave an IC50 [2] of 0.13 µM.
CC(C)(CO)[C@@H](O)C(=O)NCCC(=O)NCCNC(=O)C(F)C(F)(F)F (some centres unmarked) [4-07] was tested, and the inhibition at 500 µM [1, 3] was 15%, the inhibition at 500 µM [1, 4] was 94% and the inhibition at 500 µM [1, 5] was 1%. The IC50 [2] was 30 µM.
Work on CC(C)(CO)[C@@H](O)C(=O)NCCC(=O)NCCNC(=O)/C=C/C(F)(F)F [4-04] yielded an inhibition at 500 µM [1, 3] of 37%, an inhibition at 500 µM [1, 4] of 94% and an inhibition at 500 µM [1, 5] of 0%. For the same compound, the IC50 [2] was 5.1 µM.
